From patent US20240082282A1 (priority 2020, published 2024)
≈ marks a conversion by molar mass, not a printed value.

How the values were obtained:
[1] = system: Fusobacterium nucleatum KLE 2428; type: cell-based; conditions: KLE2428; Fusobacterium nucleatum KLE 2428, anaerobic, stool isolate; read-out: Minimum inhibitory concentration (MIC)
[2] = system: Clostridium tertium KLE 2303; type: cell-based; conditions: KLE2303; Clostridium tertium KLE 2303, anaerobic, stool isolate; read-out: Minimum inhibitory concentration (MIC)
[3] = system: Clostridium perfringens KLE 2326; test: microbe, parasite or virus in culture; type: cell-based; conditions: Clostridium perfringens, KLE2326, read-out: Minimum inhibitory concentration (MIC)
[4] = system: Staphylococcus aureus HG003; type: cell-based; conditions: Staphylococcus aureus HG003; read-out: Minimum inhibitory concentration (MIC)
[5] = system: Staphylococcus epidermidis KLE 2378; type: cell-based; conditions: KLE2378; Staphylococcus epidermidis KLE 2378, anaerobic, stool isolate; read-out: Minimum inhibitory concentration (MIC)
[6] = system: Pseudomonas aeruginosa PAO1; type: cell-based; conditions: Pseudomonas aeruginosa PAO1; read-out: Minimum inhibitory concentration (MIC)
[7] = system: Streptococcus salivarius KLE 2370; type: cell-based; conditions: KLE2370; Streptococcus salivarius KLE 2370, anaerobic, stool isolate; read-out: Minimum inhibitory concentration (MIC)
[8] = system: Streptococcus parasanguinis KLE 2375; type: cell-based; conditions: KLE2375; Streptococcus parasanguinis KLE 2375, anaerobic, stool isolate; read-out: Minimum inhibitory concentration (MIC)
[9] = system: Bifidobacterium longum ATCC BAA-999; type: cell-based; conditions: ATCCBAA999; Bifidobacterium longum ATCC BAA-999, anaerobic; read-out: Minimum inhibitory concentration (MIC)
[10] = system: Bacteroides nordii KLE 2369; type: cell-based; conditions: KLE2369; Bacteroides nordii KLE 2369, anaerobic, stool isolate; read-out: Minimum inhibitory concentration (MIC)
[11] = system: Bacteroides cellulosilyticus KLE 2342; type: cell-based; conditions: KLE2342; Bacteroides cellulosilyticus KLE 2342, anaerobic, stool isolate; read-out: Minimum inhibitory concentration (MIC)
[12] = system: Streptococcus sanguinis KLE 2374; type: cell-based; conditions: KLE2374; Streptococcus sanguinis KLE 2374, anaerobic, stool isolate; read-out: Minimum inhibitory concentration (MIC)
[13] = system: Lactobacillus reuteri ATCC 23272; type: cell-based; conditions: Limosilactobacillus reuteri, ATCC23272; Lactobacillus reuteri ATCC 23272, anaerobic; read-out: Minimum inhibitory concentration (MIC)
[14] = system: Bacteroides fragilis ATCC 25285; type: cell-based; conditions: ATCC25285; Bacteroides fragilis ATCC 25285, anaerobic; read-out: Minimum inhibitory concentration (MIC)
[15] = system: Blautia producta ATCC 27340; type: cell-based; conditions: ATCC27340; Blautia producta ATCC 27340, anaerobic; read-out: Minimum inhibitory concentration (MIC)
[16] = system: Bacteroides ovatus KLE 2306; type: cell-based; conditions: KLE2306; Bacteroides ovatus KLE 2306, anaerobic, stool isolate; read-out: Minimum inhibitory concentration (MIC)
[17] = system: Bacteroides eggerthii KLE 2382; type: cell-based; conditions: KLE2382; Bacteroides eggerthii KLE 2382, anaerobic, stool isolate; read-out: Minimum inhibitory concentration (MIC)
[18] = system: Borrelia burgdorferi BbP1286; test: microbe, parasite or virus in culture; conditions: Borreliella burgdorferi, BBP1286, read-out: Minimum inhibitory concentration (MIC)
[19] = system: Borreliella burgdorferi 297; conditions: Borreliella burgdorferi, 297, read-out: Minimum inhibitory concentration (MIC)
[20] = system: Borreliella burgdorferi B31; conditions: Borreliella burgdorferi, B31, read-out: Minimum inhibitory concentration (MIC)
[21] = system: Borreliella burgdorferi N40; conditions: Borreliella burgdorferi, N40, read-out: Minimum inhibitory concentration (MIC)
[22] = system: Borrelia bavariensis; conditions: Borreliella bavariensis, read-out: Minimum inhibitory concentration (MIC)
[23] = system: Brevinema andersonii ATCC 43811; conditions: Brevinema andersonii, ATCC43811, read-out: Minimum inhibitory concentration (MIC)
[24] = system: B. burgdorferi N40; test: Mouse infection model (IP injection, oral gavage); conditions: C3H, oral gavage, 5 days, whole ear culture
[25] = system: murine gut microbiome; test: Impact on the murine fecal microbiome (16S rRNA sequencing); conditions: mouse, in vivo
Method: Stool samples were collected and V4 region of the 16s rRNA gene was amplified using primers and sequenced (IonTorrent).
Fecal pellets were collected 3 days before and 3 days after antibiotic treatment and were stored at −80° C. in PBS. Sequencing of a stool pellet from each mouse from before and after treatment was performed by MR DNA (www.mrdnalab.com, Shallowater, TX, USA) on an Ion Torrent PGM. Using PCR primers, the V4 variable region of the 16SrRNA gene was amplified in a single-step 30 cycle PCR with the HotStarTaq Plus Master Mix Kit (Qiagen, USA). The following conditions were used: 94° C. for 3 minutes and 30 cycles of 94° C. for 30 seconds, 53° C. for 40 seconds and 72° C. for 1 minute, then a final elongation step for 5 minutes at 72° C. […] Barcodes and primers and then sequences<150 bp were removed. Further, sequences with homopolymer runs exceeding 6 bp and sequences with ambiguous calls were removed. The sequences were then denoised, OTUs were generated, and chimeras were removed; OTUs were clustered at 3% divergence. Taxonomic classification was performed using BLASTn against a database derived from RDPII available at www.rdp.cme.msu.edu) and NCBI (www.ncbi.nlm.nih.gov). The change in relative abundance of the most abundant genera from before to after treatment of each individual mouse was reported. Further, raw sequences were processed in Qiita (Gonzalez, A., et al. (2018). Nat Methods 15, 796-798; the contents of which are herein incorporated by reference in its entirety) and were demultiplexed, trimmed to 100 bp, and closed reference OTU picking was performed against the Greengenes database at 97% similarity (McDonald, D. et al. (2012). ISME J 6, 610-618; the contents of which are herein incorporated by reference in its entirety). The alpha diversity based on the Simpson index was calculated in Qiita. The change in the Simpson index was calculated for the fecal microbiome of each mouse from before to after treatment. Statistical significance was calculated using a one-way ANOVA with Tukey's multiple comparisons test (p<0.05).

Structure (SMILES)	MIC [1] [µg/mL]	MIC [2] [µg/mL]	MIC [3] [µg/mL]	MIC [4] [µg/mL]	MIC [5] [µg/mL]	MIC [6] [µg/mL]	MIC [7] [µg/mL]	MIC [8] [µg/mL]	MIC [9] [µg/mL]	MIC [10] [µg/mL]	MIC [11] [µg/mL]	MIC [12] [µg/mL]	MIC [13] [µg/mL]	MIC [14] [µg/mL]	MIC [15] [µg/mL]	MIC [16] [µg/mL]	MIC [17] [µg/mL]	MIC [18] [µg/mL]	MIC [19] [µg/mL]	MIC [20] [µg/mL]	further results
C[C@H]1c2cccc(O)c2C(=O)C2=C(O)[C@]3(O)C(=O)C(C(N)=O)=C(O)[C@@H](N(C)C)[C@@H]3[C@@H](O)[C@@H]21 [Doxycycline]	0.12 (≈ 0.27 µM)	0.03 (≈ 0.0675 µM)	0.25 (≈ 0.563 µM)	0.12 (≈ 0.27 µM)	0.5 (≈ 1.13 µM)	32 (≈ 72 µM)	0.12 (≈ 0.27 µM)	4 (≈ 9 µM)	0.25 (≈ 0.563 µM)	0.25 (≈ 0.563 µM)	2 (≈ 4.5 µM)	0.25 (≈ 0.563 µM)	8 (≈ 18 µM)	0.5 (≈ 1.13 µM)	2 (≈ 4.5 µM)	0.01 (≈ 0.0225 µM)	0.01 (≈ 0.0225 µM)	0.25 (≈ 0.563 µM)	0.25 (≈ 0.563 µM)	0.25 (≈ 0.563 µM)	MIC [21]: 0.25 µg/mL (≈ 0.563 µM); MIC [22]: 0.12 µg/mL (≈ 0.27 µM); MIC [23]: 0.12 µg/mL (≈ 0.27 µM); Culture positive (%) ([24]; daily dose 100 mg/kg/day): 0%
CC1(C)S[C@@H]2[C@H](NC(=O)[C@H](N)c3ccc(O)cc3)C(=O)N2[C@H]1C(=O)O [Amoxicillin]	2 (≈ 5.47 µM)	32 (≈ 87.6 µM)	0.12 (≈ 0.328 µM)	1 (≈ 2.74 µM)	> 128	> 128	0.06 (≈ 0.164 µM)	64 (≈ 175 µM)	1 (≈ 2.74 µM)	32 (≈ 87.6 µM)	128 (≈ 350 µM)	2 (≈ 5.47 µM)	4 (≈ 10.9 µM)	16 (≈ 43.8 µM)	1 (≈ 2.74 µM)	0.5 (≈ 1.37 µM)	0.5 (≈ 1.37 µM)	0.12 (≈ 0.328 µM)	0.25 (≈ 0.684 µM)	0.25 (≈ 0.684 µM)	Bloom of Bacteroides [25]: produced a bloom of Bacteroides; Changes in the composition of the microbiota [25]: significant changes; Mice with Enterococcaceae blooms [25]: 4/5; MIC [21]: 0.12 µg/mL (≈ 0.328 µM); MIC [22]: 0.06 µg/mL (≈ 0.164 µM); MIC [23]: 0.12 µg/mL (≈ 0.328 µM); Culture positive (%) ([24]; daily dose 200 mg/kg/day): 0%
